From a melting point compilation (Tetko et al.; mined from patent text by program, amines drawn as free bases though some values may be those of a salt)

First: COC(=O)Cc1nsc(NC(=O)OC)n1
Second: COC(=O)Nc1nc2ccc(Oc3ccccn3)cc2[nH]1
The melting point of the first is lower: 167 to 169 °C for the first, 246 to 253 °C for the second.

Compared with `CCc1cnc(C2=NC(C)(C(C)C)C(=O)N2)c(C(=O)NCCCCCC(=O)OC)c1` (stereo not drawn), `CCCCCCCCNC(=O)N1CCC(S(=O)(=O)c2ccc(CCNC[C@H](O)COc3ccc(O)c(C)c3)cc2)CC1` is lower in melting point: 101 to 103 °C for the first, 58 to 71 °C for the second.

First: CS(=O)(=O)c1ccc(C(CC2CCCC2)C(=O)Nc2ccccn2)cc1F (stereo not drawn)
Second: CC(=O)c1c(-c2ccc(F)cc2)nn(CC2CC2)c(=O)c1Nc1cccc2ncccc12
The melting point of the first is lower: 76 to 79 °C for the first, 169 to 170 °C for the second.

First: COc1cc2ncnc(N3CCN(C(=S)Nc4cc(C)cs4)CC3)c2cc1OC
Second: COc1ccc(NC(=O)c2ccc(-c3ccncc3)s2)cc1N1CCN(C)CC1
The melting point of the first is higher: 214 to 216 °C for the first, 191 to 194 °C for the second.

Compared with `COc1ccc(CN(C)CCCSc2ccc(NC(=O)c3cccc4c(=O)c5ccccc5[nH]c34)cc2)cc1OC`, `Cc1cc(C(=O)O)ccc1OCCNC(=O)C1Cc2ccccc2N1S(=O)(=O)c1ccc(-c2ccc(F)cc2)cc1` (stereo not drawn) is lower in melting point: 140 °C for the first, 112 to 118 °C for the second.

First: CCn1nc2c(N)nc3ccccc3c2c1CC(C)(C)O
Second: C=CCn1nc(-c2sc(C(=O)NC(C)C)nc2-c2ccccc2)ccc1=O
The melting point of the first is higher: 223 to 225 °C for the first, 166 to 167 °C for the second.

Compared with `N#Cc1ccc(OCCCCC(=O)O)cc1`, `CCCCCOc1cc(C(=O)O)cc(S(N)(=O)=O)c1-c1ccccc1` is lower in melting point: 160 °C for the first, 152 to 155 °C for the second.

First: COC(=O)C1=C(C)NC(C)=C(C)C1c1ccccc1 (stereo not drawn)
Second: O=C(Oc1ccccc1Br)c1cc(I)c[nH]1
The melting point of the first is lower: 120 °C for the first, 126 to 127 °C for the second.

Compared with `CC1(C)CSCC(=O)N1`, `CC1(C)CC2(NC(=O)NC2=O)c2ccccc2O1` (stereo not drawn) is higher in melting point: 151 to 152 °C for the first, 233 to 235 °C for the second.

Compared with `COCCNC(=O)c1cccc(-c2cccc3cc(Cc4cc(F)ccc4F)sc23)c1`, `COc1ccc(-c2sc3c(c2C)c(=O)c(C#N)cn3Cc2ccccc2F)cc1` is higher in melting point: 92 to 94 °C for the first, 215 to 216 °C for the second.

Compared with `O=C(Nc1ccc(-n2nc(C(F)(F)F)cc2C(F)(F)F)cc1)c1ccccc1Cl`, `CC(C)Oc1c(C(=O)Nc2ccccc2)oc2ccc(Cl)cc12` is lower in melting point: 155 to 157 °C for the first, 82 to 83 °C for the second.

First: CCN(CC)c1nc(Cl)nc2c(Cl)ncnc12
Second: CCCCC(CC)c1nc2cc(O)c(C#N)c(C)n2n1 (stereo not drawn)
The melting point of the first is lower: 113 to 114 °C for the first, 253 to 254 °C for the second.

Compared with `Cc1cccc(NC(=O)NCC(=O)N(c2ccccc2)c2ccccc2CC(=O)NC(C)(C)C)c1`, `CCCCc1nn(-c2cc(NC(=O)c3ccccc3)ccc2C(F)(F)F)c(=O)n1Cc1ccc(-c2ccccc2S(=O)(=O)NC(=O)OC(C)(C)C)cc1F` is lower in melting point: 216 °C for the first, 117 to 120 °C for the second.

First: FC(F)Sc1nnc(-c2cnccn2)s1
Second: Cc1c(-c2cccnc2)n(CCCCc2nnn[nH]2)c2ccccc12
The melting point of the first is lower: 113 to 115 °C for the first, 177 to 179 °C for the second.

Compared with `O=Cc1cc([N+](=O)[O-])ccc1OC(F)(F)F`, `CNC(=O)n1nc(Oc2ccc([N+](=O)[O-])cc2C(F)(F)F)c(Cl)c1C` is higher in melting point: 32 to 34 °C for the first, 157 to 158 °C for the second.

First: C=CCC(C(=O)O)(c1ccccc1)c1ccccc1
Second: C=CCn1c(-c2ccccc2[N+](=O)[O-])nc2ccccc21
The melting point of the first is higher: 134 to 137 °C for the first, 81.5 to 83 °C for the second.

First: CCc1cccc(N)c1C(=O)O
Second: CCNC(=O)c1cccc([N+](=O)[O-])c1
The melting point of the first is lower: 99 to 104 °C for the first, 118 to 120 °C for the second.

First: COCCNC(=O)Cn1nc(-c2ccccc2O)nc1-c1ccccc1O
Second: Nc1nc(-c2ccc(CCNC(=O)Cc3ccccc3)cc2)cs1
The melting point of the first is higher: 184 to 186 °C for the first, 176 to 177 °C for the second.

First: CCc1nc(-c2ccc(/C=C/C3(O)CN4CCC3CC4)cc2)no1 (stereo not drawn)
Second: N#Cc1cc(NC(=O)c2cc3ccccc3s2)ccc1N1CCN(C2CCOCC2)CC1
The melting point of the first is lower: 158 to 160 °C for the first, over 285 °C for the second.

Going from `CN1CC(=O)c2c(c3ccccc3n2C)S1(=O)=O` to `COc1ccc(C2=CCN(CCCN3c4cccc5cccc(c45)S3(=O)=O)CC2)cc1`, the melting point falls from 180 °C to 178 °C.

First: COC(=O)c1cc2cc(OC)c(OCCCl)cc2nc1N
Second: CCOC(=O)CC(C)Nc1ccc(OC)c(OC)c1 (stereo not drawn)
The melting point of the first is higher: 145 to 157 °C for the first, 59 to 60 °C for the second.

First: CC(O)c1ccc(Oc2ccc(NC(=O)Nc3cc(C(C)(C)C)on3)cc2)cc1 (stereo not drawn)
Second: COc1ccc(-c2cc(C(=O)O)cc3ccc4c(c23)OCO4)cc1
The melting point of the first is lower: 80 to 85 °C for the first, 264 to 266 °C for the second.

First: NC(=O)c1sc(Oc2ccc3c(c2)OCO3)c2c1CCc1cnoc1-2
Second: O=C(O)CCc1oc(-c2ccc3c(c2)OCO3)nc1-c1ccc(Cl)cc1
The melting point of the first is lower: 167 to 169 °C for the first, 199 to 200 °C for the second.

Compared with `CCCCN(CCCC)c1ccc(C=Cc2ccc(C=CC3=C(C#N)C(=C(C#N)C#N)OC3(C)C)s2)c(OCc2ccccc2)c1`, `CCCN(CCCNc1ncc(Cc2ccc(F)cc2)c(=O)[nH]1)c1ccccn1` is lower in melting point: 218 to 219 °C for the first, 107 to 109 °C for the second.

First: O=C1c2cccc3cc4ccccc4c(c23)C(=O)N1CCCNCCNCCCN1C(=O)c2cccc3cc4ccccc4c(c23)C1=O
Second: CCN(CC)CCn1nc2c3c(cccc31)C(=O)c1c(NCCNCCO)cccc1-2
The melting point of the first is higher: 180 °C for the first, 129 to 132 °C for the second.

First: Cn1c(COc2ccc(CC3SC(=O)NC3=O)cc2)nc2ccc(OCCc3ccc(N)cc3)cc21 (stereo not drawn)
Second: O=S(=O)(Nc1cccc(CCOCc2ccc(-c3ccc(Cl)cc3)cc2)c1)C(F)(F)F
The melting point of the first is higher: 184 to 188 °C for the first, 69 to 70 °C for the second.

First: O=C(O)CN(CCN(CC(=O)O)C(Cc1ccccc1)C(=O)O)CC(=O)O (stereo not drawn)
Second: CC(=O)c1cc(N2CCCC2)ccc1NC(=O)c1ccccc1OCc1ccccc1
The melting point of the first is lower: 120 °C for the first, 160 to 161 °C for the second.

Compared with `CCCc1c(OCCCCc2ccc3c(Cl)c(OC)c(OC)c(Cl)c3c2)ccc(C(=O)O)c1O`, `COc1cc(C=O)ccc1OCc1sc(-c2ccccc2)nc1C` is lower in melting point: 181 to 182 °C for the first, 118 to 119 °C for the second.

Compared with `Cc1cc(C)cc(-c2nc(NC(=O)Cc3ccccc3)sc2-c2ccncc2)c1`, `CCC(=O)Nc1cc(-c2c(-c3ccc(F)c(C)c3)nc3cccnn23)ccn1` is lower in melting point: 226 to 229 °C for the first, 166 to 167 °C for the second.

First: C=C1CC(C(O)=Nc2cc(Cl)cc(Cl)c2)C1C(=O)O (stereo not drawn)
Second: COC(=O)COc1cc2c(c(Cl)c1C)C(=O)C1(CCCC1)C2=O
The melting point of the first is lower: 119 °C for the first, 152 to 154 °C for the second.

First: CCC(=O)OC(CC)c1nc2c(C(F)(F)F)cccc2c(O)c1C(=O)Nc1nccs1 (stereo not drawn)
Second: CCOC(=O)Cc1ccnc2c([N+](=O)[O-])cccc12
The melting point of the first is higher: 187 °C for the first, 67 to 69 °C for the second.

Compared with `Clc1cc(Oc2ccc3[nH]ccc3c2)ncn1`, `c1cc(OC[C@H]2CO2)cc(-c2noc3ncccc23)c1` is lower in melting point: 137 to 138 °C for the first, 91 to 93 °C for the second.

First: OCCCc1cc(-c2ccc(C(F)(F)F)cc2)no1
Second: CS(=O)(=O)Oc1cnc2cc(C(F)(F)F)ccc2c1O
The melting point of the first is lower: 59 to 60 °C for the first, 220 °C for the second.

First: Cc1ccccc1-c1ccc(C(=O)N2Cc3ccc(C(=O)C(Cl)(Cl)Cl)n3Cc3ccccc32)cc1C
Second: Cc1[nH]c(C(=O)N2CC=CN2)c(C)c1-c1nc2ccc(C(=O)c3ccccc3)cc2[nH]1
The melting point of the first is higher: 212 to 214 °C for the first, 148 to 150 °C for the second.

Compared with `CCC(=O)N[C@@H](C)C(=O)N1CCC[C@H]1C(=O)NC1CCCC1`, `CC(=O)NC[C@H]1CN(c2cc(F)c(C3CCNCC3)c(F)c2)C(=O)O1` is lower in melting point: 172 to 173 °C for the first, 125 to 126 °C for the second.

Compared with `CC(=O)NC[C@H]1CN(c2ccc(N3CC(=O)C3)c(F)c2)C(=O)O1`, `C#CCN1C(=O)C(=O)N(c2cc(Cl)ccc2C)C1=S` is lower in melting point: 192 to 193 °C for the first, 162 to 164 °C for the second.

First: CCOCN1C(C)=C(C(=O)OCC)C(c2cccc([N+](=O)[O-])c2)C(C(=O)OCC)=C1C
Second: CC1=C(S(=O)(=O)c2ccc(C)cc2)C(c2ccc(C)cc2)C(C#N)=C(CC(C)C)N1 (stereo not drawn)
The melting point of the first is lower: 125 °C for the first, 135 to 137 °C for the second.

First: CN(C)Cc1c[nH]c2cc(Cl)ccc12
Second: NC1SC=CN1Sc1ccc(F)cc1F (stereo not drawn)
The melting point of the first is higher: 130 to 133 °C for the first, 116 to 117 °C for the second.

First: Nc1cccc(C(=O)Nc2cccc3cc(Br)cnc23)c1
Second: CCn1nc(-c2cccc(Cl)c2)c(C(C)=O)c(Nc2cccc3cnccc23)c1=O
The melting point of the first is higher: 209 to 211 °C for the first, 189 to 191 °C for the second.

Compared with `CCc1nc(Cc2ccc(NC(=O)/C=C/c3cnn(C)c3-c3ccc(F)cc3)cc2)cs1`, `CN1CCN(C(=O)c2ccc(-c3cnc4c(c3)N(Cc3cc(F)ccc3F)C(=O)C(C)(C)N4)cc2)CC1` is higher in melting point: 178 to 179 °C for the first, 204 to 206 °C for the second.

First: CC1(O)c2ccccc2C2=NCCCN21 (stereo not drawn)
Second: C1=C(c2ccccc2)CC(CN2CCN(c3ccccn3)CC2)C1 (stereo not drawn)
The melting point of the first is higher: 199 to 201 °C for the first, 100 to 101 °C for the second.

Compared with `O=C(NCCCc1ccncc1)N(CCC12CC3CC(CC(C3)C1)C2)Cc1ccco1`, `CC=Cn1c(=S)sc2c(=N)n(NC(=O)c3ccco3)cnc21` is higher in melting point: 128 to 130 °C for the first, 218 °C for the second.

First: CN(C)C(=O)CC(c1ccc(OC(F)F)c(OCC2CC2)c1)N1Cc2cccc(N)c2C1=O (stereo not drawn)
Second: CC(=O)OC1CSC(Oc2cccc(-c3cccnc3F)c2)C(OC(C)=O)C1OC(C)=O (stereo not drawn)
The melting point of the first is lower: 70 to 72 °C for the first, 116 °C for the second.

First: CCOc1ccc(S(=O)(=O)N(CC(=O)NN=C2C(=O)Nc3ccc(I)cc32)c2ccccc2)cc1
Second: CCOC(=O)COc1ccc(C(=O)Nc2cc(Cl)ccc2Sc2ccccc2-c2nnn[nH]2)cc1
The melting point of the first is higher: 233 to 234 °C for the first, 206 to 208 °C for the second.

Going from `CN(C)C=Nc1nc2ncn(C)c(=S)n2n1` to `COc1cc(O)nc(C(C)(C)C)n1`, the melting point falls from over 300 °C to 175 °C.

First: O=c1ccn([C@H]2C=C[C@@H](O)C2)c(=O)[nH]1 (racemic)
Second: COc1cc2c(cc1-c1cccnc1)-c1c(-c3cccs3)c3c(n1CC2)C(=O)N(C(C)C)CCN(C(=O)OC(C)(C)C)C3
The melting point of the first is lower: 163 to 164 °C for the first, 207 to 208 °C for the second.

Compared with `CC(C)(C)NCP(=O)(O)O`, `C#CC(C)(C)N1CCN(C(=O)OC(C)(C)C)CC1` is lower in melting point: 295 °C for the first, 106 to 107 °C for the second.

Compared with `CCCCCCCCCCCCCC(=O)N(CCCCCCCC)CCC(=O)O`, `COc1cc(OC)cc(C2=NC(CO)Cc3cc(OC)c(OC)cc32)c1` (stereo not drawn) is higher in melting point: 47 °C for the first, 59 to 62 °C for the second.

First: CN(C)c1nc(NCc2ccco2)nc(Nc2cccc(C(F)(F)F)c2)n1
Second: Cc1ccc(-c2coc(-c3ccc4c(c3)C(C)(C)CCC4(C)C)c2)cc1
The melting point of the first is lower: 81 to 83 °C for the first, 155 to 157 °C for the second.
